Laboratory results: US12391737B2, “Soluble NPY2 receptor agonists” (Boehringer Ingelheim International GmbH, priority 2020, dated 2025)
*1 amine or outer side, *2 acyl side, *3 side chain or, on linkers, in order; H or OH if unused. Where a SMILES comes first, the peptide text is derived from it. Side-chain parts run from the residue outwards. The star is where a group is joined. C18 diacid = O=C(O)CCCCCCCCCCCCCCCCC(=O)*; γGlu = O=C(O)[C@H](CCC(=O)[*:2])N[*:1]; Isovaleryl = CC(C)CC(=O)*; Ahx = NCCCCCC(=O)O

Tests used:
[1] = target: T1, Human Neuropeptide Y2 Receptor (Homo sapiens, UniProt P49146); experiment: Radioligand binding competition assay (RLB); settings: Table 3, 125I-PYY(1-36) competition; read-out: Ki
T1 construct: purchased CHEMICON HTS066M
T1 sequence (P49146 1-381): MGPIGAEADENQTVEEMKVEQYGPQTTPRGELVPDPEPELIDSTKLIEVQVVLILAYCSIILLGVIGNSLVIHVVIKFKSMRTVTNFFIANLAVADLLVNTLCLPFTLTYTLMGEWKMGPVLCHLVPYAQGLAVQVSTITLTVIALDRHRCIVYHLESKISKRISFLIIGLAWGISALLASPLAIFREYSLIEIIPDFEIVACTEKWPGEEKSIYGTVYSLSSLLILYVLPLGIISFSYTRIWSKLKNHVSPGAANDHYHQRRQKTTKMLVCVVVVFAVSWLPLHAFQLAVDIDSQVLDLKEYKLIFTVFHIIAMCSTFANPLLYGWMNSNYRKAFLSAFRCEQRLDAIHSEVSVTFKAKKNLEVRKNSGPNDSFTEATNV
Summary of the method: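 Filtration binding assay on human Y2 receptor membrane preparation, 0.5 μg protein per well, in 50 mM HEPES pH 7.4 containing 5 mM MgCl2, 1 mM CaCl2 and 0.2% ovalbumin. Plates shake 2 h at room temperature before harvest and scintillation counting.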

[2] = Solubility determination; settings: for Sol6: pH 6; for Sol7: pH 7
Summary of the method: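 First, TFA-salt peptide was added to 0.1 M sodium diphosphate (pH 6.4 or 7.0) to 10 mg/ml and shaken 2 h at room temperature. Next, insoluble material was filtered off. Finally, filtrate and control, each 1 mg/ml in 50% acetonitrile, were compared by reversed-phase chromatography.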

| SMILES | Ki [1] | Sol6 [2] | Sol7 [2] |
| --- | --- | --- | --- |
| CC(C)CC(=O)N[C@@H](C)C(=O)N1CCC[C@H]1C(=O)N[C@@H](CCC(=O)O)C(=O)N[C@@H](CCCCNC(=O)CCCCCNC(=O)CC[C@H](NC(=O)CCCCCCCCCCCCCCCCC(=O)O)C(=O)O)C(=O)N1CCC[C@H]1C(=O)N[C@@H](CCC(=O)O)C(=O)N[C@@H](CCC(=O)O)C(=O)N[C@@H](CC(=O)O)C(=O)N[C@@H](C)C(=O)N[C@@H](CCC(=O)O)C(=O)N1CCC[C@H]1C(=O)N[C@@H](CCC(=O)O)C(=O)N[C@@H](CCC(=O)O)C(=O)N[C@H](C(=O)N[C@@H](CCC(N)=O)C(=O)N[C@@H](CCCNC(=N)N)C(=O)N[C@@H](Cc1ccc(O)cc1)C(=O)N[C@@H](Cc1ccc(O)cc1)C(=O)N[C@H](C(=O)N[C@@H](CO)C(=O)N[C@@H](CC(C)C)C(=O)N[C@@H](CCCNC(=N)N)C(=O)N[C@@H](Cc1c[nH]cn1)C(=O)N[C@@H](Cc1ccc(O)cc1)C(=O)N[C@@H](Cc1ccc(O)cc1)C(=O)N[C@@H](CC(N)=O)C(=O)N[C@@H](Cc1c[nH]c2ccccc12)C(=O)N[C@@H](CC(C)C)C(=O)N[C@H](C(=O)N[C@@H](CCCNC(=N)N)C(=O)N[C@@H](CCC(N)=O)C(=O)N[C@@H](CCCNC(=N)N)C(=O)N[C@@H](Cc1ccc(O)cc1)C(N)=O)[C@@H](C)O)C(C)C)[C@@H](C)O [Compound 107, N{alpha-4}-(3-methylbutanoyl)-N{epsilon-7}-(6-[(4S)-4-carboxy-4-(17-carboxyheptadecanamido)butanamido]hexanoyl)-[4A,7K,9E,13E,17T,18Q,22V,28Y,30W,31L]-hPYY(4-36)] | 5.13 nM | 11.0 mg/mL | 11.0 mg/mL |
| CC(C)CC(=O)N[C@@H](C)C(=O)N1CCC[C@H]1C(=O)N[C@@H](CCC(=O)O)C(=O)N[C@@H](CCCCNC(=O)CCCCCNC(=O)CC[C@H](NC(=O)CCCCCCCCCCCCCCCCC(=O)O)C(=O)O)C(=O)N1CCC[C@H]1C(=O)N[C@@H](CCC(=O)O)C(=O)N[C@@H](C)C(=O)N[C@@H](CC(=O)O)C(=O)N[C@@H](C)C(=O)N[C@@H](CO)C(=O)N[C@@H](CCC(=O)O)C(=O)N[C@@H](CCC(=O)O)C(=O)N[C@@H](CCC(=O)O)C(=O)N[C@@H](CC(C)C)C(=O)N[C@@H](CCC(N)=O)C(=O)N[C@@H](CCCNC(=N)N)C(=O)N[C@@H](Cc1ccc(O)cc1)C(=O)N[C@@H](Cc1ccc(O)cc1)C(=O)N[C@H](C(=O)N[C@@H](CO)C(=O)N[C@@H](CC(C)C)C(=O)N[C@@H](CCCNC(=N)N)C(=O)N[C@@H](Cc1c[nH]cn1)C(=O)N[C@@H](Cc1ccc(O)cc1)C(=O)N[C@@H](Cc1ccc(O)cc1)C(=O)N[C@@H](CC(N)=O)C(=O)N[C@@H](Cc1c[nH]c2ccccc12)C(=O)N[C@@H](CC(C)C)C(=O)N[C@H](C(=O)N[C@@H](CCCNC(=N)N)C(=O)N[C@@H](CCC(N)=O)C(=O)N[C@@H](CCCNC(=N)N)C(=O)N[C@@H](Cc1ccc(O)cc1)C(N)=O)[C@@H](C)O)C(C)C [Compound 108, N{alpha-4}-(3-methylbutanoyl)-N{epsilon-7}-(6-[(4S)-4-carboxy-4-(17-carboxyheptadecanamido)butanamido]hexanoyl)-[4A,7K,9E,10A,14E,18Q,22V,28Y,30W,31L]-hPYY(4-36)] | 2.77 nM | 8.6 mg/mL | 8.0 mg/mL |
| CC(C)CC(=O)N[C@@H](C)C(=O)N1CCC[C@H]1C(=O)N[C@@H](CCC(=O)O)C(=O)N[C@@H](CCCCNC(=O)CCCCCNC(=O)CC[C@H](NC(=O)CCCCCCCCCCCCCCCCC(=O)O)C(=O)O)C(=O)N1CCC[C@H]1C(=O)N[C@@H](CCC(=O)O)C(=O)N[C@@H](CCC(=O)O)C(=O)N[C@@H](CC(=O)O)C(=O)N[C@@H](CC(C)C)C(=O)N[C@H](C(=O)N1CCC[C@H]1C(=O)N[C@@H](CCC(=O)O)C(=O)N[C@@H](CCC(=O)O)C(=O)N[C@@H](CC(C)C)C(=O)N[C@@H](CCC(N)=O)C(=O)N[C@@H](CCCNC(=N)N)C(=O)N[C@@H](Cc1ccc(O)cc1)C(=O)N[C@@H](Cc1ccc(O)cc1)C(=O)N[C@H](C(=O)N[C@@H](CO)C(=O)N[C@@H](CC(C)C)C(=O)N[C@@H](CCCNC(=N)N)C(=O)N[C@@H](Cc1c[nH]cn1)C(=O)N[C@@H](Cc1ccc(O)cc1)C(=O)N[C@@H](Cc1ccc(O)cc1)C(=O)N[C@@H](CC(N)=O)C(=O)N[C@@H](Cc1c[nH]c2ccccc12)C(=O)N[C@@H](CC(C)C)C(=O)N[C@H](C(=O)N[C@@H](CCCNC(=N)N)C(=O)N[C@@H](CCC(N)=O)C(=O)N[C@@H](CCCNC(=N)N)C(=O)N[C@@H](Cc1ccc(O)cc1)C(N)=O)[C@@H](C)O)C(C)C)[C@@H](C)O [Compound 109, N{alpha-4}-(3-methylbutanoyl)-N{epsilon-7}-(6-[(4S)-4-carboxy-4-(17-carboxyheptadecanamido)butanamido]hexanoyl)-[4A,7K,9E,12L,13T,18Q,22V,28Y,30W,31L]-hPYY(4-36)] | 14 nM | 10.0 mg/mL | 8.5 mg/mL |
| CC(C)CC(=O)N[C@@H](C)C(=O)N1CCC[C@H]1C(=O)N[C@@H](CCC(=O)O)C(=O)N[C@@H](CCCCNC(=O)CCCCCNC(=O)CC[C@H](NC(=O)CCCCCCCCCCCCCCCCC(=O)O)C(=O)O)C(=O)N1CCC[C@H]1C(=O)N[C@@H](CCC(=O)O)C(=O)N[C@@H](CCC(=O)O)C(=O)N[C@@H](CC(=O)O)C(=O)N[C@@H](C)C(=O)N[C@H](C(=O)N1CCC[C@H]1C(=O)N[C@@H](CCC(=O)O)C(=O)N[C@@H](CCC(=O)O)C(=O)N[C@@H](CC(C)C)C(=O)N[C@@H](CCC(N)=O)C(=O)N[C@@H](CCCNC(=N)N)C(=O)N[C@@H](Cc1ccc(O)cc1)C(=O)N[C@@H](Cc1ccc(O)cc1)C(=O)N[C@H](C(=O)N[C@@H](CCC(=O)O)C(=O)N[C@@H](CC(C)C)C(=O)N[C@@H](CCCNC(=N)N)C(=O)N[C@@H](Cc1c[nH]cn1)C(=O)N[C@@H](Cc1ccc(O)cc1)C(=O)N[C@@H](Cc1ccc(O)cc1)C(=O)N[C@@H](CC(N)=O)C(=O)N[C@@H](Cc1c[nH]c2ccccc12)C(=O)N[C@@H](CC(C)C)C(=O)N[C@H](C(=O)N[C@@H](CCCNC(=N)N)C(=O)N[C@@H](CCC(N)=O)C(=O)N[C@@H](CCCNC(=N)N)C(=O)N[C@@H](Cc1ccc(O)cc1)C(N)=O)[C@@H](C)O)C(C)C)[C@@H](C)O [Compound 110, N{alpha-4}-(3-methylbutanoyl)-N{epsilon-7}-(6-[(4S)-4-carboxy-4-(17-carboxyheptadecanamido)butanamido]hexanoyl)-[4A,7K,9E,13T,18Q,22V,23E,28Y,30W,31L]-hPYY(4-36)] | 6.42 nM | 10.0 mg/mL | >10.0 mg/mL |
| CC[C@H](C)[C@H](NC(=O)[C@H](CCC(=O)O)NC(=O)[C@H](CCC(=O)O)NC(=O)[C@@H]1CCCN1C(=O)[C@H](CCC(=O)O)NC(=O)[C@H](C)NC(=O)[C@H](C)NC(=O)[C@H](C)NC(=O)[C@H](CCC(=O)O)NC(=O)[C@@H]1CCCN1C(=O)[C@H](CCCCNC(=O)CCCCCNC(=O)CC[C@H](NC(=O)CCCCCCCCCCCCCCCCC(=O)O)C(=O)O)NC(=O)[C@H](C)NC(=O)[C@@H]1CCCN1C(=O)[C@H](C)NC(=O)CC(C)C)C(=O)N[C@@H](CCC(N)=O)C(=O)N[C@@H](CCCNC(=N)N)C(=O)N[C@@H](Cc1ccc(O)cc1)C(=O)N[C@@H](Cc1ccc(O)cc1)C(=O)N[C@H](C(=O)N[C@@H](CO)C(=O)N[C@@H](CC(C)C)C(=O)N[C@@H](CCCNC(=N)N)C(=O)N[C@@H](Cc1c[nH]cn1)C(=O)N[C@@H](Cc1ccc(O)cc1)C(=O)N[C@@H](Cc1ccc(O)cc1)C(=O)N[C@@H](CC(N)=O)C(=O)N[C@@H](Cc1c[nH]c2ccccc12)C(=O)N[C@@H](CC(C)C)C(=O)N[C@H](C(=O)N[C@@H](CCCNC(=N)N)C(=O)N[C@@H](CCC(N)=O)C(=O)N[C@@H](CCCNC(=N)N)C(=O)N[C@@H](Cc1ccc(O)cc1)C(N)=O)[C@@H](C)O)C(C)C [Compound 111, N{alpha-4}-(3-methylbutanoyl)-N{epsilon-7}-(6-[(4S)-4-carboxy-4-(17-carboxyheptadecanamido)butanamido]hexanoyl)-[4A,6A,7K,9E,10A,11A,13E,17I,18Q,22V,28Y,30W,31L]-hPYY(4-36)] (Isovaleryl-APAK([Ahx-γGlu-C18 diacid])PEAAAEPEEIQRYYVSLRHYYNWLTRQRY-NH2) | 2.14 nM | 0.0 mg/mL | 0.0 mg/mL |
